According to patent US6368621B1, “Preparation in particular for use as a medication and/or food supplement” (Peter Greither, priority 1999, dated 2002):

Assay: Determining the Kpart value: distribution between n-octanol and aqueous tris hydrochloride
Assay type: physicochemical
Conditions: n-octanol / aqueous tris hydrochloride 20 mM, pH 7.4, 20° C.; for distribution coefficient Kpart, metal-free compound: spectrophotometry 220 to 340 nm; for distribution coefficient Kpart, iron complex [FeIII-(compound)3]: spectrophotometry 340 to 640 nm, 3:1 iron(III) complex of the compound
Source text: A further factor which plays a role with the bio-availability of iron is the ability of the iron complexes to penetrate biological membranes. One of the possible indicators for this membrane permeation is Kpart. Kpart describes the ratio between the concentration of the compound in n-octanol to the concentration of the compound in the aqueous phase. Although the iron complex as well as its corresponding metal-free compound should be able to enter through the biomembrane, both should also have a certain degree of water solubility. In the course of the present invention the iron complexes preferably have Kpart values in a region between 0.02 and 6.0, preferred between 0.1 and 4.0 and even more preferred between 0.2 and 1.0. The metal-free complex preferably has Kpart values between 0.05 and 3.0, preferred between 0.1 and 2.0 and even more preferred between 0.2 and 1.0.
Determining the Kpart value:
Determined is the distribution in each case for the iron complex as well as for the corresponding metal-free compound between n-octanol and aqueous tris hydrochloride (20 mM, pH 7.4; tris: 2 amino-2-hydroxymethylpropane-1,3-diol). The concentration of the substances in the respective phase is measured at 20° C. by way of spectrophotometry. 5 ml of a 10^−4M aqueous solution of iron complex and metal-free compound are mixed with 5 ml of n-octanol for one minute. The aqueous n-octanol mixture arising with this is centrifuged at 1,000 G for 30 seconds. The two resulting phases are separated from one another for evaluating the concentration. The metal-free compound is measured in a region of 220 to 340 nanometers whilst for evaluating the concentration of the corresponding iron complex a region between 340 and 640 nanometers is selected. These regions also apply to the 3:1 maltol-iron(III)-complex.

Compound | distribution coefficient Kpart, metal-free compound | distribution coefficient Kpart, iron complex [FeIII-(compound)3]
CCn1cccc(O)c1=O [1-ethyl-3-hydroxypyri-2-one] | 0.52 | 1.06
Cn1cccc(O)c1=O [3-hydroxy-1-methylpyride-2-one] | 0.44 | 0.10
Cc1occc(=O)c1O [3-hydroxy-2-methyl-4 pyrone] | 0.66 | 0.5
